The supplement of paper PMC10307832

Legend:
Assay in all cases: relative viability (nuclei count vs DMSO), 5 days (fraction); higher = more cells survive
[1] = compound: CCn1c(-c2nonc2N)nc2c(C#CC(C)(C)O)ncc(OC[C@H]3CCCNC3)c21 + NC(=O)Nc1cc(-c2cccc(F)c2)sc1C(=O)N[C@H]1CCCNC1 [AZD7762] (partner 0.2 µM)
Method in brief: (§1)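 Lung cancer cell lines, seeded in 1536-well plates, were treated the following day by pin tool with a single drug or with five library-drug doses (not always all listed) in √10 steps on top of a fixed anchor-drug dose. Cells were fixed and nuclei stained in one step after 5 days, and nuclei were counted. Relative viability is the nuclei count for treated wells divided by that for vehicle wells, reported as medians of duplicate plates.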

BAM7 + Crizotinib = compound: CCOC1=CC=CC=C1N=NC2=C(NN(C2=O)C3=NC(=CS3)C4=CC=CC=C4)C [BAM7] + C[C@@H](Oc1cc(-c2cnn(C3CCNCC3)c2)cnc1N)c1c(Cl)ccc(F)c1Cl [Crizotinib] (partner 1 µM)
Method in brief: as §1

BAM7 + Bortezomib = compound: CCOC1=CC=CC=C1N=NC2=C(NN(C2=O)C3=NC(=CS3)C4=CC=CC=C4)C [BAM7] + CC(C)C[C@H](NC(=O)[C@H](Cc1ccccc1)NC(=O)c1cnccn1)B(O)O [Bortezomib] (partner 0.002 µM)
Method in brief: as §1

[2] = compound: CCn1c(-c2nonc2N)nc2c(C#CC(C)(C)O)ncc(OC[C@H]3CCCNC3)c21 + CC(C)C[C@H](NC(=O)[C@H](Cc1ccccc1)NC(=O)c1cnccn1)B(O)O [Bortezomib] (partner 0.002 µM)
Method in brief: as §1

Cell Line	relative viability ([1]; first compound 0.01 µM)	relative viability ([1]; first compound 0.03162 µM)	relative viability ([1]; first compound 0.1 µM)	relative viability ([1]; first compound 0.3162 µM)	relative viability ([1]; first compound 1 µM)	relative viability (BAM7 + Crizotinib; first compound 0.5 µM)	relative viability (BAM7 + Crizotinib; first compound 5 µM)	relative viability (BAM7 + Crizotinib; first compound 15.81 µM)	relative viability (BAM7 + Crizotinib; first compound 50 µM)	relative viability (BAM7 + Bortezomib; first compound 0.5 µM)	relative viability (BAM7 + Bortezomib; first compound 5 µM)	relative viability (BAM7 + Bortezomib; first compound 15.81 µM)	relative viability (BAM7 + Bortezomib; first compound 50 µM)	relative viability ([2]; first compound 0.01 µM)	relative viability ([2]; first compound 0.03162 µM)	relative viability ([2]; first compound 0.1 µM)	relative viability ([2]; first compound 0.3162 µM)	relative viability ([2]; first compound 1 µM)
NCI-H2342	0.444	0.482	0.498	0.534	0.455	–	–	–	–	–	–	–	–	–	–	–	–	–
SK-MES-1	–	–	–	–	–	1.05	1.01	0.961	1.04	–	–	–	–	–	–	–	–	–
HCC-366	0.332	0.239	0.287	0.273	0.241	0.552	0.654	0.471	0.641	1.09	1.11	1.08	1.08	0.989	1.05	0.913	1.01	1.12
201T	0.679	0.713	0.628	0.51	0.68	0.957	1.02	0.876	0.883	1.05	1.13	0.925	0.987	1.1	1.14	1.1	1.07	1.09
HCC-827	0.233	0.256	0.273	0.199	0.196	0.917	0.873	0.932	0.839	1.1	1.17	1.05	0.917	1.07	1.04	1.09	0.988	1.02
NCI-H647	0.433	0.437	0.45	0.423	0.486	0.758	1.25	1.14	1.08	1.11	0.936	1.03	1.1	0.972	1.25	0.937	1.02	0.812
NCI-H2023	–	–	–	–	–	0.631	0.59	0.454	0.524	0.988	0.905	0.92	1.08	0.924	0.977	0.904	0.861	0.912
NCI-H520	–	–	–	–	–	0.705	0.747	0.856	0.684	0.625	0.75	0.441	0.708	0.79	0.887	0.529	0.249	0.399
RERF-LC-KJ	1	1.07	0.949	0.867	1.05	0.834	0.786	0.78	0.793	1.05	1.01	0.948	0.972	0.997	1.11	1.06	0.974	1.2
A-427	0.701	0.767	0.747	0.696	0.777	0.927	1	0.814	0.817	0.965	0.978	0.893	1.04	0.975	0.991	1.08	1.01	1.01
NCI-H441	1.11	1.17	1	0.988	1.1	0.776	0.656	0.706	0.717	0.48	0.453	0.464	0.447	0.47	0.451	0.459	0.288	0.449
NCI-H1703	–	0.123	–	0.0983	0.113	0.694	0.652	0.621	0.633	0.428	0.304	0.164	0.338	0.327	0.391	0.339	0.201	0.209
NCI-H1792	0.761	1.01	0.794	0.612	0.602	0.984	1.06	1.06	0.906	1.09	1.06	0.97	0.957	1.04	0.968	0.964	0.861	0.768
Calu-6	–	–	–	–	–	0.883	0.903	0.783	0.675	0.969	0.986	0.94	1.01	1.01	1.06	1.1	0.998	1.12
SK-LU-1	–	–	–	–	–	0.785	1.05	0.903	0.866	1.18	1.46	1.3	1.39	1.08	1.08	0.707	0.992	1.22
PC-3 [JPC-3]	0.724	–	0.796	0.692	0.859	0.913	0.942	0.784	0.827	0.824	0.751	0.782	0.585	0.82	0.852	0.796	0.781	0.808
EMC-BAC-2	1.11	1.04	1.08	0.94	1.17	0.849	0.852	0.74	0.857	1.04	1.16	1.11	1.17	1.02	1	0.996	1.06	1.07
LK-2	0.457	0.446	0.291	0.339	0.303	0.246	0.23	0.244	0.27	–	–	–	–	–	–	–	–	–
NCI-H2126	0.995	0.982	1	1.02	1.04	0.969	0.88	0.832	0.87	1.07	1	1.08	1.08	1.05	1.13	1.08	1.09	1.1
NCI-H3122	1.01	1.03	0.997	0.975	1.04	0.282	0.378	0.33	0.312	1.06	1.13	1.04	1.05	1.05	1.03	1.07	1.1	1.08
NCI-H1975	0.663	0.694	0.811	0.695	0.641	0.792	0.773	–	0.824	0.356	0.379	–	0.386	0.379	0.351	0.438	0.314	0.289

Cell Line	relative viability ([1]; first compound 0.01 µM)	relative viability ([1]; first compound 0.03162 µM)	relative viability ([1]; first compound 0.1 µM)	relative viability ([1]; first compound 0.3162 µM)	relative viability ([1]; first compound 1 µM)	relative viability (BAM7 + Crizotinib; first compound 0.5 µM)	relative viability (BAM7 + Crizotinib; first compound 5 µM)	relative viability (BAM7 + Crizotinib; first compound 15.81 µM)	relative viability (BAM7 + Crizotinib; first compound 50 µM)	relative viability (BAM7 + Bortezomib; first compound 0.5 µM)	relative viability (BAM7 + Bortezomib; first compound 5 µM)	relative viability (BAM7 + Bortezomib; first compound 15.81 µM)	relative viability (BAM7 + Bortezomib; first compound 50 µM)	relative viability ([2]; first compound 0.01 µM)	relative viability ([2]; first compound 0.03162 µM)	relative viability ([2]; first compound 0.1 µM)	relative viability ([2]; first compound 0.3162 µM)	relative viability ([2]; first compound 1 µM)
NCI-H1944	0.682	0.47	0.596	0.513	0.654	0.984	1.15	0.839	0.821	–	–	–	–	–	–	–	–	–
SW 1573	–	–	–	–	–	0.974	0.962	0.778	0.8	0.953	1.07	1.07	0.972	0.993	0.946	0.864	0.908	0.646
NCI-H2009	–	–	–	–	–	1.12	1.05	0.973	0.987	0.976	1.29	0.926	0.971	0.997	0.944	1.05	1.03	0.958
COR-L23	–	–	–	–	–	0.785	0.685	0.601	0.604	1.03	1.06	0.845	0.916	1.01	0.961	0.97	0.884	0.938
NCI-H1299	–	–	–	–	–	0.98	1.01	1.01	0.946	1.02	1.04	1.03	0.963	1.02	1.04	0.992	0.988	1
NCI-H1650	–	–	–	–	–	0.882	1.07	0.939	0.848	0.235	0.297	0.202	0.199	0.214	0.195	0.223	0.185	0.202
NCI-H1793	0.45	0.716	–	0.412	0.411	–	–	–	–	–	–	–	–	–	–	–	–	–
COR-L 105	–	–	–	–	–	0.917	1.02	0.787	0.718	0.747	0.831	0.854	1.03	0.82	0.783	1	0.693	0.763
NCI-H2228	–	–	–	–	–	0.657	0.426	0.349	0.641	1.31	1.31	0.798	1.21	1.06	1.28	0.912	0.584	0.737
NCI-H1648	0.601	0.728	0.615	0.686	0.673	–	–	–	–	–	–	–	–	–	–	–	–	–
NCI-H661	–	–	–	–	–	1.27	1.08	0.971	0.931	0.807	0.738	0.656	0.827	0.883	0.75	0.739	0.972	0.855
NCI-H1563	–	–	–	–	–	0.974	0.942	0.889	0.841	0.972	0.82	0.899	1.06	0.963	0.842	0.752	0.829	0.796
A549	–	–	–	–	–	0.85	0.861	0.745	0.781	–	–	–	–	–	–	–	–	–
NCI-H522	0.726	0.763	0.838	0.686	0.772	–	–	–	–	–	–	–	–	–	–	–	–	–
NCI-H2170	0.756	0.947	0.86	0.84	0.941	1.12	1.07	0.873	0.989	–	–	–	–	–	–	–	–	–
SW 900	0.656	0.659	0.712	0.575	0.56	–	–	–	–	–	–	–	–	–	–	–	–	–
NCI-H1395	0.379	0.329	0.433	0.368	0.389	–	–	–	–	–	–	–	–	–	–	–	–	–
IA-LM	–	–	–	–	–	0.725	1.16	0.619	0.784	0.789	0.98	0.756	0.777	0.854	0.77	0.877	0.679	0.373
NCI-H358	0.478	0.386	0.684	0.518	0.512	0.76	0.589	0.522	0.52	–	–	–	–	–	–	–	–	–
EBC-1	–	–	–	–	–	0.216	0.201	0.191	0.175	0.497	0.503	0.531	0.574	0.549	0.566	0.521	0.488	0.444
